Laboratory results reported in article PMC10110893, “[…]-derived synthetic cannabinoids inhibit T-type calcium channels with divergent effects on seizures in rodent models of epilepsy” (Frontiers in Physiology, 2023).

Legend:
[1] = tested on: Genetic Absence Epilepsy Rat from Strasbourg (GAERS); assay: Spike-and-wave discharges (EEG) in GAERS; format: in vivo
Method: GAERS experiments were conducted in accordance with the standards of the Canadian Council on Animal Care and approved by the University of Saskatchewan Animal Research Ethics Board (protocol 20130118). GAERS were initially sourced from the University of Melbourne to establish a Canadian GAERS colony in 2010 ([Powell et al., 2014]) and weanlings were provided by the Snutch Laboratory at the University of British Columbia to the University of Saskatchewan in 2013 (snutchlab.msl.ubc.ca) ([Marks et al., 2016]; [Marks et al., 2019]). GAERS were maintained on a 12 h light/dark cycle with lights on at 0700 and access to food and water ad libitum except during EEG recordings.
GAERS display reliable spike and wave discharges (SWD) characteristic of childhood absence epilepsy (CAE) ([Tringham et al., 2012]; [Marks et al., 2019]; [Roebuck et al., 2021]; [McElroy et al., 2022]; [Roebuck et al., 2022]). Experiments were conducted in male (n = 11; two removed due to poor recording integrity) and female (n = 5) GAERS. Group sizes were determined based on previous experiments and availability of age, sex, and litter matched animals ([Marks et al., 2019]; [McElroy et al., 2022]; [Roebuck et al., 2022]). Animals were well handled and habituated to the recording protocol prior to testing. Baseline recordings were performed prior to sessions with drug treatment and SB2193 (10, 30, 100 mg/kg) or vehicle (5 mL/kg) was administered (i.p.) ∼15–20 min prior to recordings using a within-subjects design (5–7 days washout periods between treatments). SB2193 was freshly prepared in ethanol-Kolliphor (Sigma Aldrich)-saline (1:1:18 ratio).
Construction and implantation of electrodes proceeded according to established protocols ([Farrell et al., 2018]; [Marks et al., 2019]; [McElroy et al., 2022]; [Roebuck et al., 2022]). Surgeries were performed under isoflurane anaesthesia with buprenorphine, anafen, and bupivicaine (topical) used as analgesics. Bipolar electrodes were chronically implanted bilaterally in somatosensory cortex (A/P 0.6 mm, M/L 5.5 mm, D/V −3.0 mm, relative to bregma) ([Polack et al., 2007]). Implants were secured with 3.2 mm stainless steel screws (one served as a ground) and dental cement. Animals were given a 1-week recovery period before habituation and testing.
Following recovery from surgery, animals were handled for 3–4 days and habituated to the EEG tether and hook-up process at least once before baseline recordings. Local field potentials (LFP) were acquired by tethered EEG (Grass Technologies), amplified 5,000x, and digitized at 100 Hz ([Farrell et al., 2018]; [Marks et al., 2019]; [McElroy et al., 2022]; [Roebuck et al., 2022]). Recordings (4 h) were conducted in two clear Plexiglas boxes (32 cm × 32 cm) and treatments were randomized such that each animal received each treatment. During recording sessions, animals were prevented from sleeping with gentle taps on the chamber door as necessary. Animals were perfused to confirm electrode placement following testing.
SWDs were analysed using a custom MATLAB (MathWorks) script developed by Dr. Stuart Cain and Jeff LeDue at the University of British Columbia. SWDs were assessed between 7 and 12 Hz and defined as bursts > 3x baseline amplitude >0.5 s as previously described ([Powell et al., 2014]; [Farrell et al., 2018]; [Marks et al., 2019]; [Roebuck et al., 2021]; [McElroy et al., 2022]; [Roebuck et al., 2022]). SWDs were analysed semi-automatically using Matlab and manually confirmed by a researcher blinded to treatment. A second researcher re-analysed a subset of files and interrater reliability was confirmed. Treatment data are normalized to initial non-treatment baseline data (e.g., % change) to account for SWD variability between subjects. Raw SWD data are also reported for comparison.
Time-binned data were analysed using a two-way analysis of variance (ANOVA) with factors of treatment (vehicle, 10, 30, 100 mg/kg SB2193) and time (1, 2, 3, 4 h post-treatment). […]

[2] = Brain concentration after sub-chronic administration in chow; format: in vivo, mouse; conditions: 5,000 mg/kg chow ad libitum P18–23, male and female mice, n = 10
Method: Plasma samples (50 μL) were spiked with an internal standard (diazepam) and vortexed with 1 M NaOH (50 μL) and methyl tert-butyl ether (1 mL) to achieve protein precipitation. The organic layer was isolated by centrifugation (4,000 g for 3 min) before being frozen for 60 min at −80°C, evaporated to dryness using N2, and reconstituted in 30% acetonitrile and 0.1% formic acid in water for analysis. Brain hemispheres were homogenised in a 10x w/v 1:1 methanol-water solution using a Biospec Tissue-Tearor (Bartlesville, United States) and centrifuged at 20,000 g for 30 min at 4°C. Supernatant (100 μL) was collected and prepared following the same method as plasma.
SB2193 and SB2193F concentrations in brain and plasma samples were assessed by high performance liquid chromatography-tandem mass spectrometry (HPLC-MS/MS) using a Shimadzu Nexera liquid chromatograph coupled with a Shimadzu 8,030 triple quadrupole mass spectrometer (Kyoto, Japan). […]
Quantification was achieved by comparing experimental samples to plasma and brain standards prepared with known concentrations of SB2193 or SB2193F. Samples were quantified against a 7-point standard curve (R ^2 > 0.98 for both analytes). […]

[3] = 100 mg/kg i.p., 4 h EEG recording
[4] = 30 and 100 mg/kg i.p., 4 h EEG recording

SMILES: CCCCCn1cc(C(=O)N2CCN(C(=O)OC(C)(C)C)CC2)c2ccccc21 [SB2193]
- SWD incidence, raw count data, compared to vehicle ([1]; 30 mg/kg i.p., 4 h EEG recording): significantly increased
- SWD average duration, raw data, compared to vehicle [1, 3]: significantly increased
- average SWD duration, normalized to baseline, compared to vehicle [1, 3]: increased
- SWD frequency ([1]; 10, 30, 100 mg/kg i.p., 4 h EEG recording): No changes
- effects on SWDs in the first hour following administration ([1]; 10, 30, 100 mg/kg i.p., first hour): No significant effects
- SWD (total) duration, normalized to baseline, compared to vehicle [1, 4]: significantly increased
- SWD incidence, normalized to baseline, compared to vehicle [1, 4]: significantly increased
- SWD total duration, raw data, compared to vehicle [1, 4]: significantly increased
- brain concentration [2]: 1700 ± 600 nM
